Legend:
[1] = target: T1, Sodium-dependent serotonin transporter (Homo sapiens, UniProt P31645); assay: Inhibition of 5HT uptake at human SERT expressed in human JAR cells at 1000 nM; format: cell-based
Target sequence in this assay (P31645 whole entry, looked up): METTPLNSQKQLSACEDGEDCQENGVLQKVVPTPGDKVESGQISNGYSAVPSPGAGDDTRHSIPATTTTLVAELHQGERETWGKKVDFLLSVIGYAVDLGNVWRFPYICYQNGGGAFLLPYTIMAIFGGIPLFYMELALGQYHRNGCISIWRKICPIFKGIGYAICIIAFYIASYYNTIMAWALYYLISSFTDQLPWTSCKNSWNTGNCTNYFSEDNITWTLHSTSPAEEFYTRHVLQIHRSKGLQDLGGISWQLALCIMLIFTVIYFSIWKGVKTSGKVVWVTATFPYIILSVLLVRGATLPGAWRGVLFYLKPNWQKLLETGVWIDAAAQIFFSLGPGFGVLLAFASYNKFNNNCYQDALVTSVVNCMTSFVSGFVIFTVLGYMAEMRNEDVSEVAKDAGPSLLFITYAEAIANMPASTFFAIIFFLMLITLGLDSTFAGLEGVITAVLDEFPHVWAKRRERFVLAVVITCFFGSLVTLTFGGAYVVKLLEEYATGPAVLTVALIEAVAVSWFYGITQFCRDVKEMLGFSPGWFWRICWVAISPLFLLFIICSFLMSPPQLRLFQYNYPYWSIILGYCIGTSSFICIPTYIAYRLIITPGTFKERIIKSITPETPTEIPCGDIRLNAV

[2] = target: T2, Sodium-dependent noradrenaline transporter (Homo sapiens, UniProt P23975)
[3] = target: T2, Sodium-dependent noradrenaline transporter; assay: biochemical
[4] = target: Sodium-dependent dopamine transporter (Homo sapiens, UniProt Q01959); assay: Displacement of [3H]WIN-35428 from human recombinant dopamine transporter expressed in CHO cells at 1000 nM; format: cell-based
Chain of Sodium-dependent dopamine transporter (Q01959 whole entry): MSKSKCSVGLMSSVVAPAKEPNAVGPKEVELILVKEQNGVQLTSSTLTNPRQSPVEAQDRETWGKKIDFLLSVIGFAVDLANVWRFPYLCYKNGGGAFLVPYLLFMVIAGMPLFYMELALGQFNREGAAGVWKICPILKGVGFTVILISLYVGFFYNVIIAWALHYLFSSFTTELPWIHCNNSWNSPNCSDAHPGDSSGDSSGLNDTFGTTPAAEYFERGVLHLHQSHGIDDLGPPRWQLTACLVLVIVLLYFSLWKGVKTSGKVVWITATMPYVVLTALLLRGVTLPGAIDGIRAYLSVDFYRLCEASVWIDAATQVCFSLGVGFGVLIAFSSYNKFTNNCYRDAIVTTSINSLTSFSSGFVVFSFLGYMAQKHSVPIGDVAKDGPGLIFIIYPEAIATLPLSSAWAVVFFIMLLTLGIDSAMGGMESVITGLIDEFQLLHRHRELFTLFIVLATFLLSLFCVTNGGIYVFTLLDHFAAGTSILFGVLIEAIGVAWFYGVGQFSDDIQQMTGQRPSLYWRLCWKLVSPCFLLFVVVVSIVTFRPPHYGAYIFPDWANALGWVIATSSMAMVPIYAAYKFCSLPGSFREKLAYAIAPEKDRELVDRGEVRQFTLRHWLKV

[5] = Plasma concentration in Sprague-Dawley rat at 30 mg/kg, ip after 4 hrs; format: ADME, organism-based; parameters: dose 30 mg/kg, route intraperitoneal
[6] = Plasma concentration in Sprague-Dawley rat at 30 mg/kg, ip after 6 hrs; format: ADME, organism-based; parameters: dose 30 mg/kg, route intraperitoneal
[7] = system: Rattus norvegicus; assay: Effect on ovariectomy-induced thermoregulatory dysfunction in telemetry Sprague-Dawley rat model assessed as mean reduction in tail skin temperature at 30 mg/kg, po after 3 hrs relative to control; format: functional
[8] = Activity at adrenergic receptor 1 alpha assessed as calcium mobilization by FLIPR
[9] = Inhibition of adrenergic receptor 1 alpha by competition radioligand binding assay
[10] = target: T3, 5-hydroxytryptamine receptor 2B (Homo sapiens, UniProt P41595); assay: Inhibition of 5HT2B receptor by competition radioligand binding assay
T3 sequence (P41595 whole entry): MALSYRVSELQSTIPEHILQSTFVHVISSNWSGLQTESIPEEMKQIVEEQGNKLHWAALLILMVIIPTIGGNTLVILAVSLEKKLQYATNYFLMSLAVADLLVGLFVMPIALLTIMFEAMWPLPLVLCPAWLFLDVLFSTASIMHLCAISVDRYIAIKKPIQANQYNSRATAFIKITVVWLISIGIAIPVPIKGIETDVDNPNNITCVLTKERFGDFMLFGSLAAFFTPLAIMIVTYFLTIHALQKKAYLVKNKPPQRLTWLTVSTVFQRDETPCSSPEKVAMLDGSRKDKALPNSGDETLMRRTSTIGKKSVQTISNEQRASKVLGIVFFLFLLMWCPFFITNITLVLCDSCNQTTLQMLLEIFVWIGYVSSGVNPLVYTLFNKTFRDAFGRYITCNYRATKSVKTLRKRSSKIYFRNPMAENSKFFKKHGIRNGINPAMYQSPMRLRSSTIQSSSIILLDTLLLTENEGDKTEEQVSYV

[11] = target: T3, 5-hydroxytryptamine receptor 2B; assay: Activity at 5HT2B receptor assessed as calcium mobilization by FLIPR; format: functional
[12] = Plasma concentration in Sprague-Dawley rat at 30 mg/kg, po after 1 hr; format: ADME, organism-based; parameters: dose 30 mg/kg, route oral
[13] = Half life in Sprague-Dawley rat at 30 mg/kg, po; format: ADME, organism-based; parameters: dose 30 mg/kg, route oral; conditions: in vivo
[14] = Plasma concentration in Sprague-Dawley rat at 30 mg/kg, po after […]; format: ADME, organism-based; parameters: dose 30 mg/kg, route oral
[15] = target: T4, 5-hydroxytryptamine receptor 1D (Homo sapiens, UniProt P28221); assay: Inhibition of 5HT1D receptor by competition radioligand binding assay
T4 sequence (P28221 whole entry): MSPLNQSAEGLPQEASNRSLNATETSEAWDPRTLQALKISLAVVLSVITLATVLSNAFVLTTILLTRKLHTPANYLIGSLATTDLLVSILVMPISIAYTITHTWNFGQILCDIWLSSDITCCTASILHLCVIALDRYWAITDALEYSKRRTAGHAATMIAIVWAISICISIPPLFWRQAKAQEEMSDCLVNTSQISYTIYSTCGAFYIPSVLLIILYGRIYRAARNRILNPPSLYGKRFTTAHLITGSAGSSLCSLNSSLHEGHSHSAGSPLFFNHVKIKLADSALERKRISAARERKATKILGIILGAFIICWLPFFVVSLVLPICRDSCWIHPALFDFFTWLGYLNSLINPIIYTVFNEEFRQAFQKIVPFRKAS

[16] = Plasma concentration in Sprague-Dawley rat at 30 mg/kg, ip after 0.5 hrs; format: ADME, organism-based; parameters: dose 30 mg/kg, route intraperitoneal
[17] = Plasma concentration in Sprague-Dawley rat at 30 mg/kg, ip after 2 hrs; format: ADME, organism-based; parameters: dose 30 mg/kg, route intraperitoneal
[18] = Plasma concentration in Sprague-Dawley rat at 30 mg/kg, ip after 1 hr; format: ADME, organism-based; parameters: dose 30 mg/kg, route intraperitoneal
[19] = Plasma concentration in Sprague-Dawley rat at 30 mg/kg, po after 2 hrs; format: ADME, organism-based; parameters: dose 30 mg/kg, route oral
[20] = Cmax in Sprague-Dawley rat at 30 mg/kg, po; format: ADME, organism-based; parameters: dose 30 mg/kg, route oral; conditions: in vivo
[21] = Plasma concentration in Sprague-Dawley rat at 1 mg/kg, iv after 1 hr; format: ADME, organism-based; parameters: dose 1 mg/kg, route intravenous
[22] = target: T5, 5-hydroxytryptamine receptor 6 (Homo sapiens, UniProt P50406); assay: Inhibition of 5HT6 receptor by competition radioligand binding assay
T5 sequence (P50406 whole entry): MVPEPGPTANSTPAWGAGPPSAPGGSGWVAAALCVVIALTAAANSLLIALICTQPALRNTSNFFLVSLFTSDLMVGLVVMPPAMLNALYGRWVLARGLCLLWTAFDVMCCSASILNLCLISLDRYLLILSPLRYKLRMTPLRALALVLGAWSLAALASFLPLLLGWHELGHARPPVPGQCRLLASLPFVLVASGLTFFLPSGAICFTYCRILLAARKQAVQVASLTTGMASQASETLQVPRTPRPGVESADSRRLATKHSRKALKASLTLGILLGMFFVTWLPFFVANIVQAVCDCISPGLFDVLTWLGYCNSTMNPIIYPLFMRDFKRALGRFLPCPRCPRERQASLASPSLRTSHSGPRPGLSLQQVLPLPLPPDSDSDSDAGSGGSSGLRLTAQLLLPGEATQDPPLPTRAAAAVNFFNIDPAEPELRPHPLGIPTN

[23] = Cmax in Sprague-Dawley rat at 30 mg/kg, ip; format: ADME, organism-based; parameters: dose 30 mg/kg, route intraperitoneal; conditions: in vivo
[24] = Plasma concentration in Sprague-Dawley rat at 30 mg/kg, ip after […]; format: ADME, organism-based; parameters: dose 30 mg/kg, route intraperitoneal
[25] = target: T6, 5-hydroxytryptamine receptor 2A (Homo sapiens, UniProt P28223); assay: Inhibition of 5HT2A receptor by competition radioligand binding assay
T6 sequence (P28223 whole entry): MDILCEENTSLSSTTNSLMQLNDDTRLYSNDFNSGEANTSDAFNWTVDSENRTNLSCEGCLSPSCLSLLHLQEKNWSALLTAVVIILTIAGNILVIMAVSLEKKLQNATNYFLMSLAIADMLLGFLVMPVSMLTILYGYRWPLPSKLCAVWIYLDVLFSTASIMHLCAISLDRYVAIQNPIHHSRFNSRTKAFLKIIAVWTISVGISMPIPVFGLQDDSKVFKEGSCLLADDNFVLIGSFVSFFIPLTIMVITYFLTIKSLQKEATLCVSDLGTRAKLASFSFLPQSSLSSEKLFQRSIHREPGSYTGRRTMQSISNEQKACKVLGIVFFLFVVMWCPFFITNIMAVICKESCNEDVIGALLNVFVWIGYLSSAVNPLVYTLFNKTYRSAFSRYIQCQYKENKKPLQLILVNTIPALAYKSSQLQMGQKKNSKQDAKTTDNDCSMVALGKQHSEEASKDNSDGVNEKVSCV

[26] = Plasma concentration in Sprague-Dawley rat at 30 mg/kg, ip after 0.033 hrs; format: ADME, organism-based; parameters: dose 30 mg/kg, route intraperitoneal
[27] = AUC (0 to infinity) in Sprague-Dawley rat at 30 mg/kg, po; format: ADME, organism-based; parameters: time infinity, dose 30 mg/kg, route oral; conditions: plasma
[28] = Plasma concentration in Sprague-Dawley rat at 1 mg/kg, iv after 4 hrs; format: ADME, organism-based; parameters: dose 1 mg/kg, route intravenous
[29] = AUC (0 to infinity) in Sprague-Dawley rat at 30 mg/kg, ip; format: ADME, organism-based; parameters: time infinity, dose 30 mg/kg, route intraperitoneal; conditions: plasma
[30] = Plasma concentration in Sprague-Dawley rat at 30 mg/kg, po after 0.5 hrs; format: ADME, organism-based; parameters: dose 30 mg/kg, route oral
[31] = Plasma concentration in Sprague-Dawley rat at 30 mg/kg, po after 8 hrs; format: ADME, organism-based; parameters: dose 30 mg/kg, route oral
[32] = system: Mus musculus; assay: Antidepressant activity in Swiss Webster mouse assessed as decrease in immobility time at 17 mg/kg, ip after 30 mins by tail suspension test; format: functional; parameters: scale not given: the % may be the effect or the level left; conditions: route intraperitoneal
[33] = target: T6, 5-hydroxytryptamine receptor 2A; assay: Activity at 5HT2A receptor assessed as calcium mobilization by FLIPR; format: functional
[34] = target: T4, 5-hydroxytryptamine receptor 1D; assay: Activity at 5HT1D receptor assessed as calcium mobilization by FLIPR; format: functional
[35] = target: T7, 5-hydroxytryptamine receptor 7 (Homo sapiens, UniProt P34969); assay: Inhibition of 5HT7 receptor by competition radioligand binding assay
[36] = Plasma concentration in Sprague-Dawley rat at 1 mg/kg, iv after 0.033 hrs; format: ADME, organism-based; parameters: dose 1 mg/kg, route intravenous
[37] = Plasma concentration in Sprague-Dawley rat at 1 mg/kg, iv after […]; format: ADME, organism-based; parameters: dose 1 mg/kg, route intravenous
[38] = Plasma concentration in Sprague-Dawley rat at 30 mg/kg, po after 4 hrs; format: ADME, organism-based; parameters: dose 30 mg/kg, route oral
[39] = Plasma concentration in Sprague-Dawley rat at 1 mg/kg, iv after 2 hrs; format: ADME, organism-based; parameters: dose 1 mg/kg, route intravenous
[40] = Half life in Sprague-Dawley rat at 30 mg/kg, ip; format: ADME, organism-based; parameters: dose 30 mg/kg, route intraperitoneal; conditions: in vivo
[41] = system: Rattus norvegicus; assay: Effect on ovariectomy-induced thermoregulatory dysfunction in telemetry Sprague-Dawley rat model assessed as mean reduction in tail skin temperature at 30 mg/kg, ip after 6.5 hrs relative to control; format: functional; conditions: route intraperitoneal
[42] = Plasma concentration in Sprague-Dawley rat at 30 mg/kg, po after 6 hrs; format: ADME, organism-based; parameters: dose 30 mg/kg, route oral
[43] = Plasma concentration in Sprague-Dawley rat at 1 mg/kg, iv after 0.5 hrs; format: ADME, organism-based; parameters: dose 1 mg/kg, route intravenous
[44] = target: T5, 5-hydroxytryptamine receptor 6; assay: Activity at 5HT6 receptor assessed as calcium mobilization by FLIPR; format: functional
[45] = AUC (0 to infinity) in Sprague-Dawley rat at 1 mg/kg, iv; format: ADME, organism-based; parameters: time infinity, dose 1 mg/kg, route intravenous; conditions: plasma
[46] = Plasma concentration in Sprague-Dawley rat at 30 mg/kg, ip after 8 hrs; format: ADME, organism-based; parameters: dose 30 mg/kg, route intraperitoneal
[47] = target: T8, 5-hydroxytryptamine receptor 1B (Homo sapiens, UniProt P28222); assay: Inhibition of 5HT1B receptor by competition radioligand binding assay
T8 sequence (P28222 whole entry): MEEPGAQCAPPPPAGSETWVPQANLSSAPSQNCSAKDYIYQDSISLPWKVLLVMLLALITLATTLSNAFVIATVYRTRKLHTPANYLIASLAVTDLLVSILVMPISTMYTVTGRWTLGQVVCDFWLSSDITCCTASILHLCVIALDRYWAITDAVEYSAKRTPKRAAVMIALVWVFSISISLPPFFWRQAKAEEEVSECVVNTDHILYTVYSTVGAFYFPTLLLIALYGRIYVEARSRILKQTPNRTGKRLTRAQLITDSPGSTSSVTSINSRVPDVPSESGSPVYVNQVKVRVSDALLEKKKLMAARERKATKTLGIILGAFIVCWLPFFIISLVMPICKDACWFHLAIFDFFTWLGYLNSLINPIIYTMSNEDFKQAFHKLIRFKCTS

[48] = target: T8, 5-hydroxytryptamine receptor 1B; assay: Activity at 5HT1B receptor assessed as calcium mobilization by FLIPR; format: functional
[49] = system: Mus musculus; assay: Antidepressant activity in Swiss Webster mouse assessed as decrease in immobility time at 30 mg/kg, ip after 30 mins by tail suspension test; format: functional; parameters: scale not given: the % may be the effect or the level left; conditions: route intraperitoneal
[50] = Plasma concentration in Sprague-Dawley rat at 1 mg/kg, iv after 6 hrs; format: ADME, organism-based; parameters: dose 1 mg/kg, route intravenous
[51] = target: T7, 5-hydroxytryptamine receptor 7; assay: Activity at 5HT7 receptor assessed as calcium mobilization by FLIPR; format: functional
[52] = target: T1, Sodium-dependent serotonin transporter; format: cell-based, JAR
[53] = target: Transporter (Rattus norvegicus, UniProt Q63380)
Chain of Transporter (Q63380 whole entry): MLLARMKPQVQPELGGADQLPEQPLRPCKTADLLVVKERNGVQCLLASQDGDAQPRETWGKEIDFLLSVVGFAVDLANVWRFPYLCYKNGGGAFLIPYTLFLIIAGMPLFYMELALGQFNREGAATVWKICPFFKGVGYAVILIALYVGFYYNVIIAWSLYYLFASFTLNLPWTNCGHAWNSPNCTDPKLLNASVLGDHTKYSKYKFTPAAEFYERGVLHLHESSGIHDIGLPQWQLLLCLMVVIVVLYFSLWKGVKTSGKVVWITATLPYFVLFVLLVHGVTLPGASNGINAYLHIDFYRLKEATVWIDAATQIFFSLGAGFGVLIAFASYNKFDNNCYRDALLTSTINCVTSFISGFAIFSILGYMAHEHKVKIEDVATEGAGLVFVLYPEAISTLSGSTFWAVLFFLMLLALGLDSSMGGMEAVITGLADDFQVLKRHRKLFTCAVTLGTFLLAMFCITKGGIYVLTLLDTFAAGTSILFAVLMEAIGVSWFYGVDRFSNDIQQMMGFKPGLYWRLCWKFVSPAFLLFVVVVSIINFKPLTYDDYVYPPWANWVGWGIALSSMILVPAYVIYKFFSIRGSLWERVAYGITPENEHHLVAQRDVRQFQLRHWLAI
Description: Inhibition of norepinephrine uptake at rat brain norepinephrine transporter

[54] = species on record: Homo sapiens; assay: Selectivity ratio of IC50 for human NET over IC50 for human SERT
[55] = target: T2, Sodium-dependent noradrenaline transporter; assay: Displacement of [3H]nisoxetine from human norepinephrine transporter expressed in MDCK-Net6 cells at 1000 nM; format: cell-based
[56] = target: T2, Sodium-dependent noradrenaline transporter; assay: Inhibition of norepinephrine uptake at human norepinephrine transporter expressed in MDCK-Net6 cells at 1000 nM; format: cell-based

T2 sequence (P23975 whole entry): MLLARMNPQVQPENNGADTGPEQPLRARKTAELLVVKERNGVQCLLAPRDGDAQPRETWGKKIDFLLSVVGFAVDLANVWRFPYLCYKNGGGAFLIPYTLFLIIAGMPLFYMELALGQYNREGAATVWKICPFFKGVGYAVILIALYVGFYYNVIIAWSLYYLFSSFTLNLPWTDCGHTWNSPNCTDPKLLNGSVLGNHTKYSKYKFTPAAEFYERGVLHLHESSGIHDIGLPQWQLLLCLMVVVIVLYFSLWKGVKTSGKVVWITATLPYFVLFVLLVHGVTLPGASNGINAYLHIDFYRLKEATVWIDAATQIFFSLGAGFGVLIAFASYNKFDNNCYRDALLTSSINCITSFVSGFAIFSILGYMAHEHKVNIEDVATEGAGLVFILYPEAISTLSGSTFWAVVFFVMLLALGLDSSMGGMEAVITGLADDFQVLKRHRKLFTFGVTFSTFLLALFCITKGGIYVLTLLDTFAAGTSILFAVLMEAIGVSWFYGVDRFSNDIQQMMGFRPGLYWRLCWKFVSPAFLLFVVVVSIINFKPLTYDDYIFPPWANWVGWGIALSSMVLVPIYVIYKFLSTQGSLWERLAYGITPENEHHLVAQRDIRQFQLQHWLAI

Compound: COc1cccc(C(CN2CCN(C)CC2)C2(O)CCCCC2)c1 (stereo not given)
- inhibition [1]: 14%
- IC50 [2]: 600 nM
- Ki [3]: 514 nM
- Activity [4]: 4%

Compound: CN1CCN(C[C@H](c2cccc(OC(F)(F)F)c2)C2(O)CCCCC2)CC1.Cl.Cl
- concentration at 4 h [5]: 520 ng/mL
- concentration at 6 h [6]: 303 ng/mL
- Activity [7]: -2.16 °C
- EC50 [8]: > 10000 nM
- inhibition [1]: 3%
- IC50 [9]: > 10000 nM
- IC50 [10]: > 10000 nM
- EC50 [11]: > 10000 nM
- concentration at 1 h [12]: 304 ng/mL
- half-life [13]: 1.6 h
- concentration at […] [14]: 115 ng/mL
- IC50 [15]: > 10000 nM
- concentration at 0.5 h [16]: 2160 ng/mL
- concentration at 2 h [17]: 735 ng/mL
- concentration at 1 h [18]: 1960 ng/mL
- concentration at 2 h [19]: 182 ng/mL
- Cmax [20]: 324 ng/mL
- concentration at 1 h [21]: 109 ng/mL
- IC50 [22]: > 10000 nM
- Cmax [23]: 2690 ng/mL
- concentration at […] [24]: 1580 ng/mL
- IC50 [25]: > 10000 nM
- concentration at 0.033 h [26]: 942 ng/mL
- AUC(0-inf) [27]: 931 ng·h/mL
- concentration at 4 h [28]: 19.1 ng/mL
- AUC(0-inf) [29]: 6160 ng·h/mL
- concentration at 0.5 h [30]: 323 ng/mL
- concentration at 8 h [31]: 14.3 ng/mL
- Activity [32]: 38%
- EC50 [33]: > 10000 nM
- EC50 [34]: > 10000 nM
- IC50 [35]: > 10000 nM
- concentration at 0.033 h [36]: 164 ng/mL
- concentration at […] [37]: 225 ng/mL
- concentration at 4 h [38]: 79.5 ng/mL
- concentration at 2 h [39]: 55.4 ng/mL
- half-life [40]: 2.3 h
- Activity [41]: -2.75 °C
- concentration at 6 h [42]: 36.5 ng/mL
- concentration at 0.5 h [43]: 187 ng/mL
- EC50 [44]: > 10000 nM
- AUC(0-inf) [45]: 367 ng·h/mL
- Activity [4]: 6%
- concentration at 8 h [46]: 143 ng/mL
- IC50 [47]: > 10000 nM
- EC50 [48]: > 10000 nM
- Activity [49]: 53%
- concentration at 6 h [50]: 2.98 ng/mL
- EC50 [51]: > 10000 nM

Compound: CN(C)CC(c1cccc(C(F)(F)F)c1)C1(O)CCCCC1 (stereo not given)
- IC50 [52]: 534 nM
- IC50 [2]: 32 nM
- Ki [3]: 21 nM
- IC50 [53]: 360 nM
- Ratio IC50 [54]: 16.7
- Activity [4]: 15%

Compound: CN(C)CC(c1cccc(Cl)c1)C1(O)CCCCC1 (stereo not given)
- IC50 [53]: 160 nM
- Activity [4]: 28%

Compound: CN1CCN(CC(c2cccc(C(F)(F)F)c2)C2(O)CCCCC2)CC1 (stereo not given)
- inhibition [1]: 28%
- IC50 [2]: 92 nM
- Ki [3]: 61 nM
- Activity [4]: 6%

Compound: CN1CCN(CC(c2ccc(OC(F)(F)F)cc2)C2(O)CCCCC2)CC1 (stereo not given)
- IC50 [52]: 1210 nM
- IC50 [2]: 575 nM
- Ki [3]: 417 nM
- Activity [4]: 13%

Compound: OC1(C(CN2CCNCC2)c2cccc(OC(F)(F)F)c2)CCCCC1 (stereo not given)
- inhibition [1]: 3%
- IC50 [2]: 284 nM
- Ki [3]: 140 nM
- Activity [4]: 13%

Compound: OC1(C(CN2CCNCC2)c2ccccc2F)CCCCC1 (stereo not given)
- Activity [55]: 38%
- inhibition [56]: 31%

— ChEMBL document CHEMBL1155011, “Structure-activity relationships of the cycloalkanol ethylamine scaffold: discovery of selective norepinephrine reuptake inhibitors” (J Med Chem, 2008)
